According to ChEMBL document CHEMBL3392926, “Antiprotozoal Activity Profiling of Approved Drugs: A Starting Point toward Drug Repositioning”:
pIC50: −log10 of the molar value. Values joined by “and” are separate entries in the source; they are usually repeats but may differ in a detail not shown here. Identical values can stand only once.

Tests used:
Trypanosoma cruzi = test: microbe, parasite or virus in culture; assay type: functional, organism-based, Tulahuen C4 (LacZ); settings: Trypanosoma cruzi, Tulahuen C4 (LacZ), 96 h
cells [1] = assay type: functional, cell-based; settings: Rattus norvegicus, L6, 72 h
cells [2] = assay type: functional, cell-based; settings: Mus musculus, NMRI, BalbC or CD1 mice, Macrophage, 96 h
[3] = DNDI: Cytotoxicity in Vitro, 96 hour, in primary peritoneal mouse macrophages; assay type: functional, cell-based; settings: Macrophage
[4] = test system: Trypanosoma brucei rhodesiense; test: microbe, parasite or virus in culture; assay type: functional, organism-based, STIB 900; settings: Trypanosoma brucei, STIB 900, 72 h
Leishmania donovani [5] = test: microbe, parasite or virus in culture; assay type: functional, organism-based, MHOM/ET/67/L82
Leishmania donovani [6] = test: microbe, parasite or virus in culture; assay type: functional, organism-based, MHOM/ET/67/L82; remark: listed apart in the source
Plasmodium falciparum = test: microbe, parasite or virus in culture; assay type: functional, organism-based, K1
[7] = Leishmania donovani, MHOM/ET/67/L82, 72 h
[8] = Leishmania donovani, MHOM/ET/67/L82, 96 h
[9] = Plasmodium falciparum, K1, 72 h

SMILES	pIC50 (Trypanosoma cruzi)	pIC50 (cells [1])	pIC50 (cells [2])	pIC50 [3]	pIC50 [4]	pIC50 (Leishmania donovani [5]; [7])	pIC50 (Leishmania donovani [6]; [8])	pIC50 (Plasmodium falciparum; [9])	pIC50 (Leishmania donovani [5])	pIC50 (Leishmania donovani [6])	pIC50 (Plasmodium falciparum)
CC(C)/N=c1\cc2n(-c3ccc(Cl)cc3)c3ccccc3nc-2cc1Nc1ccc(Cl)cc1 [CLOFAZIMINE]	4.42	5.00	5.20	4.97	5.12	4.65	6.02	5.39			
Clc1ccc(COC(Cn2ccnc2)c2ccc(Cl)cc2Cl)cc1 (centres undefined) [ECONAZOLE]		4.81	4.17	4.64							
COc1cc(N[C@H](C)CCCN)c2ncccc2c1	4.75	4.36	< 4.41	4.40	5.32	4.31	4.55				
N=C(N)c1ccc(OCCCCCOc2ccc(C(=N)N)cc2)cc1 [PENTAMIDINE]	5.35	5.05	< 4.53	5.11	8.00	4.70					
CCN(CC)CCCCCCNc1cc(OC)cc2c(C)ccnc12 [SITAMAQUINE]	4.66	4.49	< 4.54	4.67	5.13	4.86	4.71	7.10			
Fc1ccc([C@@H]2CCNC[C@H]2COc2ccc3c(c2)OCO3)cc1 [PAROXETINE]	4.84	4.86	4.52		5.95	< 3.56	< 5.04	5.03			
C[C@@H]1[C@H](O)[C@@H](C)/C=C/C=C/C=C/C=C/C=C/C=C/C=C/[C@H](O[C@@H]2O[C@H](O)[C@@H](O)[C@H](N)[C@@H]2O)C[C@@H]2O[C@](O)(C[C@@H](O)C[C@@H](O)[C@H](O)CC[C@@H](O)C[C@@H](O)CC(=O)O[C@H]1C)C[C@H](O)[C@H]2C(=O)O	4.25	4.99	4.49	4.65	6.12	6.47	6.51	6.10			
Clc1ccc(COC(Cn2ccnc2)c2ccc(Cl)cc2Cl)c(Cl)c1 (centres undefined) [MICONAZOLE]		4.81	4.20	4.62							
CN(C)c1ccc(O)c2c1C[C@H]1C[C@H]3[C@H](N(C)C)C(O)=C(C(N)=O)C(=O)[C@@]3(O)C(O)=C1C2=O [MINOCYCLINE]	4.65	5.03	< 4.66		4.44	4.34	< 4.66	5.45			
Clc1ccccc1C(c1ccccc1)(c1ccccc1)n1ccnc1 [CLOTRIMAZOLE]		5.52	4.06	4.49							
COc1ccc2[nH]c([S+]([O-])Cc3ncc(C)c(OC)c3C)nc2c1 (centres undefined) [OMEPRAZOLE]	4.17	3.90	< 4.06		4.29	4.04	< 4.06	4.88			
CN(C)CCCN1c2ccccc2Sc2ccc(C(F)(F)F)cc21 [TRIFLUPROMAZINE]	4.82	4.73	4.55		5.85	4.10	< 5.07	5.57			
CO[C@H]1/C=C/O[C@@]2(C)Oc3c(C)c(O)c4c(c3C2=O)C2=NC3(CCN(CC(C)C)CC3)NC2=C(NC(=O)/C(C)=C\C=C\[C@H](C)[C@H](O)[C@@H](C)[C@@H](O)[C@H](C)[C@H](OC(C)=O)[C@H]1C)C4=O	4.56	4.22	< 4.45		4.90	4.25	< 4.45	5.80			
Cc1cccc(N(C)C(=S)Oc2ccc3ccccc3c2)c1 [TOLNAFTATE]	4.70	4.07	< 4.01		4.16	5.36	4.30	4.72			
COc1ccc(Cl)cc1C(=O)NCCc1ccc(S(=O)(=O)NC(=O)NC2CCCCC2)cc1 [GLYBURIDE]	4.03	3.93	< 4.22		4.06	5.01	< 4.22	4.42			
CCN(CCCCOC(=O)c1ccc(OC)c(OC)c1)C(C)Cc1ccc(OC)cc1 (centres undefined) [MEBEVERINE]	5.41	4.15	< 4.16		4.27	< 3.68	4.26	5.76			
CO[C@H]1/C=C/O[C@@]2(C)Oc3c(C)c(O)c4c(O)c(cc(O)c4c3C2=O)NC(=O)/C(C)=C\C=C\[C@H](C)[C@H](O)[C@@H](C)[C@@H](O)[C@@H](C)[C@H](OC(C)=O)[C@@H]1C [RIFAMYCIN]	4.30	4.80	4.38		6.00	5.82	< 4.86	6.26			
CO[C@H]1/C=C/O[C@]2(C)Oc3c(C)c(O)c4c(O)c(c5c(nc6cc(C)ccn65)c4c3C2=O)NC(=O)/C(C)=C\C=C\[C@H](C)[C@H](O)[C@@H](C)[C@@H](O)[C@H](C)[C@H](OC(C)=O)[C@H]1C	4.40	4.06	< 4.42		4.77	4.82	< 4.42	6.04			
CC1CS(=O)(=O)CCC1/N=N/c1ccc([N+](=O)[O-])o1 (centres undefined)	6.72	4.06	< 4.46	4.80	5.84	5.56	4.68				
Clc1ccc(C(Cn2ccnc2)OCc2ccsc2Cl)c(Cl)c1 (centres undefined) [TIOCONAZOLE]				4.29			< 5.11	5.97	4.65 and 5.03	4.88	6.20
Cc1cccc(C)c1OCC(=O)N[C@@H](Cc1ccccc1)[C@@H](O)C[C@H](Cc1ccccc1)NC(=O)[C@H](C(C)C)N1CCCNC1=O [LOPINAVIR]	4.81	4.72	< 4.32		4.97	4.93	< 4.32	5.72			
O=C(N/N=C/c1ccc([N+](=O)[O-])o1)c1ccc(O)cc1 [NIFUROXAZIDE]	6.64	4.91	4.44		7.52	5.55	< 4.96	5.11			
COC(=O)N[C@H](C(=O)N[C@@H](Cc1ccccc1)[C@@H](O)CN(Cc1ccc(-c2ccccn2)cc1)NC(=O)[C@@H](NC(=O)OC)C(C)(C)C)C(C)(C)C [ATAZANAVIR]	4.48	4.33	< 4.43		4.89	4.62	< 4.43	5.10			
CCC(C)n1ncn(-c2ccc(N3CCN(c4ccc(OCC5COC(Cn6cncn6)(c6ccc(Cl)cc6Cl)O5)cc4)CC3)cc2)c1=O (centres undefined) [ITRACONAZOLE]	8.40	5.95	5.37		5.07	5.62	< 5.85	5.86			
CCC[C@@]1(CCc2ccccc2)CC(O)=C([C@H](CC)c2cccc(NS(=O)(=O)c3ccc(C(F)(F)F)cn3)c2)C(=O)O1	4.55	4.27	< 4.30		4.58	5.79	< 4.30	4.35			
